The target of one assay is T1, human GPR119 (Homo sapiens, UniProt Q8TDV5).
T1 construct: expressed in transfected cells; host or cells: CHO K1
T1 sequence (Q8TDV5 1-335): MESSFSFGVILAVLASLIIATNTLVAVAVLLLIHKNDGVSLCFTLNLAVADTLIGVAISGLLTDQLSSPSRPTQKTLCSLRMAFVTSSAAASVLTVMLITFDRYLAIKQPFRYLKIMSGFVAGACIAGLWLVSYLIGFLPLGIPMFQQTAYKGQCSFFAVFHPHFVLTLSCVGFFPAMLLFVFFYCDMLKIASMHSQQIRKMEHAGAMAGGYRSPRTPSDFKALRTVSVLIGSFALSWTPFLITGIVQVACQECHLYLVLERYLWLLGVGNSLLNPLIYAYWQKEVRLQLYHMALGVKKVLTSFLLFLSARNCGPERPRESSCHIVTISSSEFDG
The assay is described as follows: hGPR119 agonistic activity, LANCE Ultra cAMP accumulation assay in CHO K1 cells stably expressing human GPR119. The format is cell-based. The note with it: for Emax: CHO-K1, 1 h, read-out: GPR119 activation %max (inherent activity). On the procedure:
CHO K1 cells stably transfected with human GPR119 were grown at 37 °C, […] and 5% CO2 in 75 cm flasks containing DMEM/F12 (1:1) media with added 10% FBS (Gibco®), Geneticin (Gibco®) and grown until 90% confluent. Cells were then washed (PBS), lifted with cell dissociation solution (Invtrogen®), counted and used for cAMP accumulation assays and/or passaging (1:10). Following the manufacturer’s instructions for the LANCE® Ultra cAMP assay (Perkin Elmer), cell transfected with hGPR119 were centrifuged (1000 rpm, 5 min), re-suspended in cAMP assay buffer (HBSS, 0.1% BSA, 0.5 mM IBMX and 5 mM HEPES) and seeded at 5000 cells/well in optiplate-384 (Perkin Elmer). […] Cell lysis buffers (4X Eu-cAMP tracer solution and 4X ULight™-anti-cAMP solution) were added to each well, and the plates were incubated at r. t. for 1 h before being read on Envision (Perkin Elmer). The assay was performed for three replicates for each concentration.
In general terms: TR-FRET usually uses a lanthanide donor and a delayed reading to cut background.

A further assay relates to C57BL/6N mice. Kind of assay: oral glucose tolerance test (oGTT), single dose, in C57BL/6N mice. The format is in vivo. The note with it: for blood glucose AUC0–120 min: mean ± SE, n = 8, vehicle 24.69 ± 3.08; for reduction of blood glucose AUC0–120 min: oGTT 3 g/kg glucose 4 h after dose, vs vehicle, C57BL/6N mice; for blood glucose reduction effect: single dose 15 and 30 mg/kg, oGTT in C57BL/6N mice. As for the experimental part: Figure 2. Single dose of compounds 10 and 15 on oGTT in C57BL/6N mice.
AUC0–2h(mmol/L) = (BG0+BG15)×0.25/2 + (BG15+BG30)×0.25/2 + (BG30+BG60)×0.5/2 + (BG60+BG90)×0.5/2 + (BG90+BG120)×0.5/2.

In the next assay the test system is GPR119. Also noted: method as in PMID 30100020, PMID 30685641. The note with it: earlier work of the authors ref 31, 32; read-out: EC50 (GPR119 agonistic potency); cited from earlier work.
The test system of a further assay is mice. Details: method as in PMID 30100020, PMID 30685641. The note with it: compared with positive control ref 31, 32; cited from earlier work.
The mark [1] stands for this setting: cAMP stimulation % compared to maximal effect of GSK1292263.
Where [2] appears, read: human GPR119 in CHO K1 cells, cAMP, 1 h incubation, read-out: GPR119 activation EC50.

SMILES strings stand for the structures. Read-outs that look alike come from different tables or passages of the source. Where only a bound is given, the exact number is not on record here.

As for `CC(C)(C)OC(=O)N1CCN(C(=O)CN2[C@@H]3CC[C@H]2C[C@@H](Nc2ncnc4c2OCCN4c2ccc(C#N)cc2F)C3)CC1` [Compound 20, tert-Butyl 4-(2-((endo)-3-((8-(4-cyano-2-fluorophenyl)-7,8-dihydro-6H-pyrimido[5,4-b][1,4]oxazin-4-yl)amino)-8-azabicyclo[3.2.1]octan-8-yl)acetyl)piperazine-1-carboxylate], at human GPR119 (setting [1]), the “GPR119 activation %max (inherent activity)” value (“GPR119 activation %max” for short) is on record as 79.6%. The EC50 at human GPR119 (setting [2]) was determined as 0.082 µM.

`CC(C)c1noc(N2CCC(COc3ccc(-c4ccc(S(C)(=O)=O)cc4)nc3)CC2)n1` [GSK-1292263, reference compound]: the midpoint of the response on human GPR119, the EC50, lay at 0.0066 µM.

Consider `N#Cc1ccc(N2CCOc3c(NC4CC5CCC(C4)N5CC(=O)N4CCn5c(nnc5C(F)(F)F)C4)ncnc32)c(F)c1` (stereo not drawn) [Compound 18, 3-Fluoro-4-(4-(((endo)-8-(2-oxo-2-(3-(trifluoromethyl)-5,6-dihydro-[1,2,4]triazolo[4,3-a]pyrazin-7(8H)-yl)ethyl)-8-azabicyclo[3.2.1]octan-3-yl)amino)-6,7-dihydro-8H-pyrimido[5,4-b][1,4]oxazin-8-yl)benzonitrile], for which the “GPR119 activation %max” value at human GPR119 (setting [1]) came to 100%. Moreover, the EC50 at human GPR119 (setting [2]) worked out at 0.11 µM.

Regarding `CC(C)OC(=O)N1[C@@H]2CC[C@H]1C[C@@H](Nc1ncnc3c1OCCN3c1ccc(C#N)cc1F)C2` [Compound 15, Isopropyl (endo)-3-((8-(4-cyano-2-fluorophenyl)-7,8-dihydro-6H-pyrimido[5,4-b][1,4]oxazin-4-yl)amino)-8-azabicyclo[3.2.1]octane-8-carboxylate], the “GPR119 activation %max” value at human GPR119 (setting [1]) turned out to be 146.3%. Moreover, at human GPR119 (carbamate substituted derivatives, 15 vs. 22), the “EC50 ratio compound 15 vs. compound 22” value came to 10 times. Also, the EC50 on human GPR119 (setting [2]) stood at 0.012 µM. For the same molecule, in the assay on C57BL/6N mice (15 mg/kg single dose), the blood glucose AUC0–120 min turned out to be 21.1 ± 3.92 mmol·h/L and the “reduction of blood glucose AUC0–120 min” value is 14.5%. In addition, in the assay with C57BL/6N mice (30 mg/kg single dose), the blood glucose AUC0–120 min stood at 18.9 ± 2.58 mmol·h/L and the “reduction of blood glucose AUC0–120 min” value came to 23.4%. Besides, the “blood glucose reduction effect” value in the assay with C57BL/6N mice was “dose-dependent manner”.

With `CCc1cnc(N2CCC(Nc3ncnc4c3OCCN4c3ccc(C#N)cc3F)CC2)nc1` [Compound 23, 4-(4-((1-(5-Ethylpyrimidin-2-yl)piperidin-4-yl)amino)-6,7-dihydro-8H-pyrimido[5,4-b][1,4]oxazin-8-yl)-3-fluorobenzonitrile], the Emax on human GPR119 (setting [1]) was determined as 70.7%. Also, on human GPR119 (setting [2]), the concentration giving a half-maximal response (EC50) worked out at 0.044 µM.

`CC(C)OC(=O)N1CCC(Nc2ncnc3c2OCCN3c2ccc(C#N)cc2F)CC1` [Compound 22, Isopropyl 4-((8-(4-cyano-2-fluorophenyl)-7,8-dihydro-6H-pyrimido[5,4-b][1,4]oxazin-4-yl)amino)piperidine-1-carboxylate]: at human GPR119 (setting [1]), the Emax came out at 66.1%. Also, the 50% effective concentration (EC50) at human GPR119 (setting [2]) turned out to be 0.12 µM.

Take `CC(C)(C)OC(=O)N1[C@@H]2CC[C@H]1C[C@@H](Nc1ncnc3c(Nc4ccc(S(C)(=O)=O)cc4F)ncnc13)C2` [Compound 1]: in the assay on GPR119, the concentration giving a half-maximal response (EC50) is 0.0022 µM. The “glucose-lowering effect in oGTT” value in the assay with mice is on record as “did not show the significant glucose-lowering effect”.

As for `CC(C)(C)OC(=O)N1CCN(C(=O)CN2CCC(Nc3ncnc4c3OCCN4c3ccc(C#N)cc3F)CC2)CC1` [Compound 25, tert-Butyl 4-(2-(4-((8-(4-cyano-2-fluorophenyl)-7,8-dihydro-6H-pyrimido[5,4-b][1,4]oxazin-4-yl)amino)piperidin-1-yl)acetyl)piperazine-1-carboxylate], the Emax at human GPR119 (setting [1]) stood at 100%. For the same molecule, the EC50 at human GPR119 (setting [2]) amounted to 0.09 µM.

For the molecule `N#Cc1ccc(N2CCOc3c(N[C@H]4C[C@H]5CC[C@@H](C4)N5c4ncc(Cl)cn4)ncnc32)c(F)c1` [Compound 17, 4-(4-(((endo)-8-(5-Chloropyrimidin-2-yl)-8-azabicyclo[3.2.1]octan-3-yl)amino)-6,7-dihydro-8H-pyrimido[5,4-b][1,4]oxazin-8-yl)-3-fluorobenzonitrile], the “GPR119 activation %max” value at human GPR119 (setting [1]) is recorded as 71.2%. The EC50 on human GPR119 (setting [2]) was 0.25 µM.

Take `CC(C)(C)OC(=O)N1C2CCC1CC(CNc1ncnc3c1OCCN3c1ccc(C#N)cc1F)C2` (stereo not drawn) [Compound 11, tert-Butyl (exo)-3-(((8-(4-cyano-2-fluorophenyl)-7,8-dihydro-6H-pyrimido[5,4-b][1,4]oxazin-4-yl)amino)methyl)-8-azabicyclo[3.2.1]octane-8-carboxylate]: the Emax on human GPR119 (setting [1]) is 45.9%. Also, the EC50 on human GPR119 (setting [2]) was determined as 1.8 µM.

With `N#Cc1ccc(N2CCOc3c(NC4CCN(c5ncc(Cl)cn5)CC4)ncnc32)c(F)c1` [Compound 24, 4-(4-((1-(5-Chloropyrimidin-2-yl)piperidin-4-yl)amino)-6,7-dihydro-8H-pyrimido[5,4-b][1,4]oxazin-8-yl)-3-fluorobenzonitrile], the Emax at human GPR119 (setting [1]) turned out to be 62.7%. Also, the EC50 on human GPR119 (setting [2]) stood at 0.04 µM.

In the case of `CC(C)(C)OC(=O)N1CCC(Nc2ncnc3c2OCCN3c2ccc(C#N)cc2F)CC1` [Compound 12, tert-Butyl 4-((8-(4-cyano-2-fluorophenyl)-7,8-dihydro-6H-pyrimido[5,4-b][1,4]oxazin-4-yl)amino)piperidine-1-carboxylate], the Emax on human GPR119 (setting [1]) was 63.5%. Moreover, at human GPR119 (setting [2]), the EC50 came out at 0.2 µM.

Regarding `CCc1cnc(N2[C@@H]3CC[C@H]2C[C@@H](Nc2ncnc4c2OCCN4c2ccc(C#N)cc2F)C3)nc1` [Compound 16, 4-(4-(((endo)-8-(5-Ethylpyrimidin-2-yl)-8-azabicyclo[3.2.1]octan-3-yl)amino)-6,7-dihydro-8H-pyrimido[5,4-b][1,4]oxazin-8-yl)-3-fluorobenzonitrile], the “GPR119 activation %max” value on human GPR119 (setting [1]) is listed as 60.5%. Further, the half-maximal effective concentration (EC50) at human GPR119 (setting [2]) is 0.13 µM.

Take `CC(C)(C)OC(=O)N1C2CCC1CC(Nc1ncnc3c1OCCN3c1ccc(C#N)cc1F)C2` (stereo not drawn) [Compound 10, tert-Butyl (endo)-3-((8-(4-cyano-2-fluorophenyl)-7,8-dihydro-6H-pyrimido[5,4-b][1,4]oxazin-4-yl)amino)-8-azabicyclo[3.2.1]octane-8-carboxylate]: on human GPR119, the EC50 was 0.013 µM and the Emax was 83.9%. Moreover, in the assay on C57BL/6N mice (15 mg/kg single dose), the blood glucose AUC0–120 min stood at 22.1 ± 4.28 mmol·h/L and the “reduction of blood glucose AUC0–120 min” value was determined as 10.7%. In the assay on C57BL/6N mice (30 mg/kg single dose), the blood glucose AUC0–120 min came out at 20.1 ± 2.27 mmol·h/L and the “reduction of blood glucose AUC0–120 min” value is 18.8%. Moreover, in the assay on C57BL/6N mice, the “blood glucose reduction effect” value is “dose-dependent manner”.

For the molecule `CC(C)(C)OC(=O)N[C@@H]1CCCN(C(=O)CN2[C@@H]3CC[C@H]2C[C@@H](Nc2ncnc4c2OCCN4c2ccc(C#N)cc2F)C3)C1` [Compound 19, tert-Butyl ((R)-1-(2-((endo)-3-((8-(4-cyano-2-fluorophenyl)-7,8-dihydro-6H-pyrimido[5,4-b][1,4]oxazin-4-yl)amino)-8-azabicyclo[3.2.1]octan-8-yl)acetyl)piperidin-3-yl)carbamate], the “GPR119 activation %max” value on human GPR119 (setting [1]) is 75.6%. Further, the EC50 at human GPR119 (setting [2]) was determined as 0.068 µM.

Take `CC(C)(C)OC(=O)N1C2CCCC1CC(Nc1ncnc3c1OCCN3c1ccc(C#N)cc1F)C2` (centres unmarked) [Compound 13, tert-Butyl 3-((8-(4-cyano-2-fluorophenyl)-7,8-dihydro-6H-pyrimido[5,4-b][1,4]oxazin-4-yl)amino)-9-azabicyclo[3.3.1]nonane-9-carboxylate]: the Emax on human GPR119 (setting [1]) was found to be 22.7%. The EC50 on human GPR119 (setting [2]) is more than 10 µM.

Regarding `CC(C)(C)OC(=O)N1[C@@H]2CC[C@H]1C[C@@H](Nc1ncnc3c(Nc4ccc(C#N)cc4F)ncnc13)C2` [Compound 2], the EC50 with GPR119 was 0.0081 µM. Moreover, in the assay on mice, the “glucose-lowering effect in oGTT” value was “did not show the significant glucose-lowering effect”.

In general, EC50 refers to the concentration needed to bring the measured effect to its halfway point.
